pKi: −log10 of the molar value.
Key:
CCK-B receptor = molecular target: T1, CCK-B receptor (Cavia porcellus, UniProt H0VZC5); test: CCK-B receptor binding test ([3H]CCK-B, guinea pig cerebral cortex); conditions: [3H]CCK-B 1.0 nM, guinea pig cerebral cortex membranes, 25° C., 2 hours; read-out: binding inhibition constant (Ki value)
T1 construct: the homogenate was provided as a receptor sample; from tissue; host or cells: guinea pig cerebral cortex membrane homogenate
T1 sequence (H0VZC5 1-426): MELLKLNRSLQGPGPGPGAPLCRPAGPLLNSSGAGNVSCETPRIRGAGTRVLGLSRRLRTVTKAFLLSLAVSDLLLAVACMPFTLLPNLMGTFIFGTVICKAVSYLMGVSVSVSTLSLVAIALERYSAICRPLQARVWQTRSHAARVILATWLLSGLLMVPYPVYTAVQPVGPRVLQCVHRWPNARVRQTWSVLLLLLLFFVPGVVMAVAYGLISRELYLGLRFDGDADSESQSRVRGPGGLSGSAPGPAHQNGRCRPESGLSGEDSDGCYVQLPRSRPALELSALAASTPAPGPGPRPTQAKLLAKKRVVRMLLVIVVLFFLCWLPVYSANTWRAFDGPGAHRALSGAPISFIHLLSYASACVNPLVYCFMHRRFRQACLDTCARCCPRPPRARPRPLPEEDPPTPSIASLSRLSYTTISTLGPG
Procedure: <CCK-B Receptor Binding Test>
From a male Hartley strain guinea pig, the cerebral cortex was removed. After the cerebral cortex was homogenized with 50 mM tris-HCl buffer (pH 7.4) in an amount 50 times as much as the weight of the cerebral cortex, the homogenate was centrifuged under 50,000 g for 10 minutes. With respect to the resulting pellet, addition of the same buffer in the same amount and centrifugation were repeated twice. […]
As a binding experiment, a [^3H]CCK-B solution of a final concentration of 1.0 nM (50 μL) and the receptor sample (protein content: 800 μg/tube) (900 μL) were added to the solvent, the CCK-B solution of a final concentration of 1.0 μM or a test compound solution (50 μL), followed by a reaction at 25° C. for 2 hours. […] ACS-II scintillator was added to the filter and, after the filter was left over for 24 hours, the radioactivity concentration on the filter was measured by a liquid scintillation counter. A binding in the presence of CCK-B (1 μM) was recorded as a non-specific binding, while a value obtained by subtracting the non-specific binding from a full binding, which had been obtained using the solvent instead of CCK-B, was recorded as a specific binding. From the specific binding of [^3H]CCK-B, the binding inhibition constant (Ki value) of the compound was calculated.

[1] = tested on: pentagastrin-stimulated acid secretion; test: Inhibition test on pentagastrin-stimulated acid secretion in rats; type: in vivo, rat; conditions: SD rats, acid output 1st to 4th hour after administration
Procedure: <Inhibition Test on Pentagastrin-stimulated Acid Secretion in Rats>
Male Sprague-Dawley (SD) strain rats were used. Under anesthesia with ethyl ether, operations were performed on each rat to ligate the gastric antrum and also to arrange an intraduodenal catheter and a gastric fistula tube. After completion of the operations, the rat was placed in a Ballmann cage, and pentagastrin was continuously injected at 15 μg/kg/hr through the caudal vein. Each test compound was formed into a suspension by using a 0.5% carboxymethylcellulose sodium solution (hereinafter called “the solvent”). Upon an elapsed timeof 1 hour from the initiation of the injection of pentagastrin, the solvent or the test compound was administered through the intraduodenal catheter. The acidity of sampled gastric juice was measured using an autotitrater, and a product of the acidity and the amount of the gastric juice was recorded as an acid output. […] [formula]

CCK-A receptor = molecular target: T2, CCK-A receptor (Cavia porcellus, UniProt Q63931); test: CCK-A receptor binding test ([3H]L-364,718, guinea pig pancreas); conditions: [3H]L-364,718 0.2 nM, guinea pig pancreas membranes, 25° C., 2 hours; read-out: binding inhibition constant (Ki value)
T2 construct: The homogenate was provided as a receptor sample; from tissue; host or cells: guinea pig pancreas membrane homogenate
T2 sequence (Q63931 1-430): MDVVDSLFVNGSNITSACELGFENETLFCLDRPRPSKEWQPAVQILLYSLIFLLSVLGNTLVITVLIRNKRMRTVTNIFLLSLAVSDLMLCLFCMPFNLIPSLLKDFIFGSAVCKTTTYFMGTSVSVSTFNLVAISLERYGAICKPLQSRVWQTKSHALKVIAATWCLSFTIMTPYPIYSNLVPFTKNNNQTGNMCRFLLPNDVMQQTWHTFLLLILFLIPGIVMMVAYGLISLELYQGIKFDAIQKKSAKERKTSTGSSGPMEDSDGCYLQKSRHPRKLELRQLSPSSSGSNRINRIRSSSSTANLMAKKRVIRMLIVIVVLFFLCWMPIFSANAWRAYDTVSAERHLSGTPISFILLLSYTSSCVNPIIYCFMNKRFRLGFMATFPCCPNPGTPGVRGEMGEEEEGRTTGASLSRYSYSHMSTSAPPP
Procedure: <CCK-A Receptor Binding Test>
From a male Hartley strain guinea pig, the pancreas was removed. The pancreas was homogenized with 10 mM PIPES buffer (pH 6.5, hereinafter called “the solvent”) in an amount 40 times as much as the weight of the pancreas. The solvent contained EGTA (1 mM), magnesium chloride (30 mM), bacitracin (0. 02%) , soybean trypsin inhibitor (0.02%), and sucrose (0.3 M). After filtered through gauze, the homogenate was centrifuged under 50,000 g for 10 minutes. To the resulting pellet, the solvent was added again in an amount as much as the pellet, followed by centrifugation. To the thus-obtained pellet the solvent was added in an amount 40 times as much as the pellet, and the pellet was homogenized. […]
As a binding experiment, a solution (50 μL) of [^3H]L-364,718 (devazepide), said solution having a final concentration of 0.2 nM, and the receptor sample (protein content: 50 μg/tube) (900 μL) were added to the solvent, an L-364,718 solution of a final concentration of 1 μM or a test compound solution (50 μL), followed by a reaction at 25° C. for 2 hours. […] ACS-II scintillator was added to the filter and, after the filter was left over for 24 hours, the radioactivity concentration on the filter was measured by a liquid scintillation counter. […] From the specific binding of [^3H]L-364,718, the binding inhibition constant (Ki value) of the compound was calculated.

[2] = tested on: pentagastrin-stimulated acid secretion; test: Inhibition test on pentagastrin-stimulated acid secretion in beagles with Heidenhain pouch; type: in vivo, beagle; conditions: 1 mg/kg oral (gelatin capsules), acid output 1st to 4th hour after administration
Procedure: <Inhibition Test on Pentagastrin-stimulated Acid Secretion in Beagles with Heidenhain Pouch>
Male beagles with Heidenhain pouch formed beforehand were used. Pentagastrin was continuously and intravenously injected at 4 μg/kg/hr. Upon an elapsed time of 3 hours after the initiation of the continuous injection of pentagastrin, each test compound was filled in gelatin capsules and orally administered. The acidity of sampled gastric juice was measured using an autotitrater, and a product of the acidity and the amount of the gastric juice was recorded as an acid output. Supposing -that an acid output during 1 hour preceding the administration was 100%, acid output over 3 hours ranging from the 1st hour to the 4th hour after the administration of the test compound were converted into percentages (acid output percentages). Based on such acid output percentages, the acid output inhibition rate of each beagle was determined using the below-described formula. An average of such acid output inhibition rates was recorded as the acid inhibition rate of the compound. […] [formula]

Compound | melting point | pKi (CCK-B receptor) | acid secretion inhibition ([1]; 0.3 mg/kg intraduodenal) | pKi (CCK-A receptor) | acid secretion inhibition [2] | acid secretion inhibition ([1]; 0.1 mg/kg intraduodenal)
CC(C)(C)C(=O)CN1C(=O)C(NC(=O)Nc2cccc(C(C)(C)C(=O)O)c2)CN(C2CCCCC2)c2ccccc21 (racemic) [Example 1, (±)-2-[3-[3-(1-tert-butylcarbonylmethyl-2-oxo-5-cyclohexyl-1,3,4,5-tetrahydro-2H-1,5-benzodiazepin-3-yl)ureido]phenyl]-2-methylpropionic acid] | 215 to 216 °C (dec.) |  |  |  |  | 
CC(C)(C)C(=O)CN1C(=O)[C@H](NC(=O)Nc2cccc(C(C)(C)C(=O)O)c2)CN(C2CCCCC2)c2ccccc21 [Example 2, (R)-(−)-2-[3-[3-(1-tert-butylcarbonylmethyl-2-oxo-5-cyclohexyl-1,3,4,5-tetrahydro-2H-1,5-benzodiazepin-3-yl)ureido]phenyl]-2-methylpropionic acid] |  | 9.13 | 72.7% | 6.36 | 77.9% | 
CC(C)(C)C(=O)CN1C(=O)[C@H](NC(=O)Nc2cccc(C(C)(C)C(=O)O)c2)CN(C2CCCCC2)c2ccccc21 [Example 5, sodium (R)-2-[3-[3-(1-tert-butylcarbonylmethyl-2-oxo-5-cyclohexyl-1,3,4,5-tetrahydro-2H-1,5-benzodiazepin-3-yl)ureido]phenyl]-2-methylpropionate] |  |  | 79.3% |  |  | 48.4%

From patent US6344452B1, “1,5-benzodiazepine derivatives” (Zeria Pharmaceuticals Co., Ltd., priority 1998, dated 2002)
